{"source": "paper PMC7419507", "about": "“In vitro Cas9-assisted editing of modular polyketide synthase genes to produce desired natural product derivatives” (Nature Communications, 2020)", "format_in_all_cases": "cell-based", "key": {"[1]": {"test": "Cytotoxicity assay (CellTiter-Glo, 72 h), MESO-1", "conditions": "human", "description": "(§1) Jurkat cells were cultured in RPMI1640 medium supplemented with 10% foetal bovine serum, penicillin (50 U/ml), streptomycin (50 μg/ml), and Glutamax. SKOV-3 cells were cultured in DMEM medium supplemented with 10% fetal bovine serum, penicillin (50 U/ml), and streptomycin (50 μg/ml). MESO-1 cells were cultured in RPMI1640 medium supplemented with 10% fetal bovine serum, penicillin (50 U/ml), and streptomycin (50 μg/ml). All cell lines were seeded in a 384-well plate at a density of 1000 cells/well in 20 μl of media and incubated at 37 °C in a humidified incubator with 5% CO2. After 4 h, 2-fold dilution samples resolved in DMSO were added to the cell culture at the concentration of 0.5% (0.1 μl) and incubated for 72 h. Cell viabilities were measured using a CellTiter-Glo luminescent cell viability assay and EnVision multilabel plate reader."}, "[2]": {"tested_on": "malignant pleural mesothelioma MESO-1 cells", "test": "Cytotoxicity assay (CellTiter-Glo, 72 h), MESO-1", "conditions": "raw replicate data", "description": "as §1"}, "[3]": {"tested_on": "T lymphoma Jurkat cells", "test": "Cytotoxicity assay (CellTiter-Glo, 72 h), Jurkat", "conditions": "raw data (replicates)", "description": "as §1"}}, "note": "Where “and” joins values, the source holds several entries; their conditions need not be identical. Equal entries are not always repeated."}
{"smiles": "CO[C@H]1C[C@@H]2CC[C@@H](C)[C@@](O)(O2)C(=O)C(=O)N2CCCC[C@H]2C(=O)O[C@H]([C@H](C)C[C@@H]2CC[C@@H](O)[C@H](OC)C2)CC(=O)[C@H](C)/C=C(\\C)[C@@H](O)[C@@H](OC)C(=O)[C@H](C)C[C@H](C)/C=C/C=C/C=C/1C", "note": "[Compound 1, rapamycin, reference compound]", "values": [{"measurement": "viability at 72 h", "setting": "[1]; MESO-1 cells (malignant pleural mesothelioma), MESO-1 cells, 72 h, read-out: Plateau level of cell viability in the dose-response curve", "result": "~75", "unit": "%"}, {"measurement": "viability at 72 h, 9.53674e-05 uM", "setting": "[1]; MESO-1 malignant pleural mesothelioma cells, conc 9.53674e-5 uM, raw replicate data, read-out: MESO1 viability (%)", "result": 79, "unit": "%"}, {"measurement": "viability at 72 h, 0.000190735 uM", "setting": "[1]; MESO-1 malignant pleural mesothelioma cells, conc 0.000190735 uM, raw replicate data, read-out: MESO1 viability (%)", "result": 73.6, "unit": "%"}, {"measurement": "viability at 72 h, 0.00038147 uM", "setting": "[1]; MESO-1 malignant pleural mesothelioma cells, conc 0.00038147 uM, raw replicate data, read-out: MESO1 viability (%)", "result": 83.4, "unit": "%"}, {"measurement": "viability at 72 h, 0.000762939 uM", "setting": "[1]; MESO-1 malignant pleural mesothelioma cells, conc 0.000762939 uM, raw replicate data, read-out: MESO1 viability (%)", "result": 73.1, "unit": "%"}, {"measurement": "viability at 72 h, 0.00152588 uM", "setting": "[1]; MESO-1 malignant pleural mesothelioma cells, conc 0.00152588 uM, raw replicate data, read-out: MESO1 viability (%)", "result": 116, "unit": "%"}, {"measurement": "viability at 72 h, 0.00305176 uM", "setting": "[1]; MESO-1 malignant pleural mesothelioma cells, conc 0.00305176 uM, raw replicate data, read-out: MESO1 viability (%)", "result": 69.5, "unit": "%"}, {"measurement": "viability at 72 h, 0.00610352 uM", "setting": "[1]; MESO-1 malignant pleural mesothelioma cells, conc 0.00610352 uM, raw replicate data, read-out: MESO1 viability (%)", "result": 78.3, "unit": "%"}, {"measurement": "viability at 72 h, 0.012207 uM", "setting": "[1]; MESO-1 malignant pleural mesothelioma cells, conc 0.012207 uM, raw replicate data, read-out: MESO1 viability (%)", "result": 77.6, "unit": "%"}, {"measurement": "viability at 72 h, 0.0244141 uM", "setting": "[1]; MESO-1 malignant pleural mesothelioma cells, conc 0.0244141 uM, raw replicate data, read-out: MESO1 viability (%)", "result": 75.2, "unit": "%"}, {"measurement": "viability at 72 h, 0.0488281 uM", "setting": "[1]; MESO-1 malignant pleural mesothelioma cells, conc 0.0488281 uM, raw replicate data, read-out: MESO1 viability (%)", "result": 75, "unit": "%"}, {"measurement": "viability at 72 h, 0.0976562 uM", "setting": "[1]; MESO-1 malignant pleural mesothelioma cells, conc 0.0976562 uM, raw replicate data, read-out: MESO1 viability (%)", "result": 77, "unit": "%"}, {"measurement": "viability at 72 h, 0.195312 uM", "setting": "[1]; MESO-1 malignant pleural mesothelioma cells, conc 0.195312 uM, raw replicate data, read-out: MESO1 viability (%)", "result": 74.8, "unit": "%"}, {"measurement": "viability at 72 h, 0.390625 uM", "setting": "[1]; MESO-1 malignant pleural mesothelioma cells, conc 0.390625 uM, raw replicate data, read-out: MESO1 viability (%)", "result": 75.6, "unit": "%"}, {"measurement": "viability at 72 h, 0.78125 uM", "setting": "[1]; MESO-1 malignant pleural mesothelioma cells, conc 0.78125 uM, raw replicate data, read-out: MESO1 viability (%)", "result": 68.5, "unit": "%"}, {"measurement": "viability at 72 h, 1.5625 uM", "setting": "[1]; MESO-1 malignant pleural mesothelioma cells, conc 1.5625 uM, raw replicate data, read-out: MESO1 viability (%)", "result": 76.4, "unit": "%"}, {"measurement": "viability at 72 h, 3.125 uM", "setting": "[1]; MESO-1 malignant pleural mesothelioma cells, conc 3.125 uM, raw replicate data, read-out: MESO1 viability (%)", "result": 73.6, "unit": "%"}, {"measurement": "viability at 72 h, 6.25 uM", "setting": "[1]; MESO-1 malignant pleural mesothelioma cells, conc 6.25 uM, raw replicate data, read-out: MESO1 viability (%)", "result": 74.3, "unit": "%"}, {"measurement": "viability at 72 h, 12.5 uM", "setting": "[1]; MESO-1 malignant pleural mesothelioma cells, conc 12.5 uM, raw replicate data, read-out: MESO1 viability (%)", "result": 71.1, "unit": "%"}, {"measurement": "viability at 72 h, 25 uM", "setting": "[1]; MESO-1 malignant pleural mesothelioma cells, conc 25 uM, raw replicate data, read-out: MESO1 viability (%)", "result": 63.9, "unit": "%"}, {"measurement": "viability at 72 h, 50 uM", "setting": "[1]; MESO-1 malignant pleural mesothelioma cells, conc 50 uM, raw replicate data, read-out: MESO1 viability (%)", "result": 1.1, "unit": "%"}, {"measurement": "MESO1 viability (%)", "setting": "[2]; conc 9.53674e-5 uM", "result": "78.2% and 78.1%"}, {"measurement": "MESO1 viability (%)", "setting": "[2]; conc 0.000190735 uM", "result": "77.7% and 77.2%"}, {"measurement": "MESO1 viability (%)", "setting": "[2]; conc 0.00038147 uM", "result": "77.9% and 86.0%"}, {"measurement": "MESO1 viability (%)", "setting": "[2]; conc 0.000762939 uM", "result": "70.2% and 70.0%"}, {"measurement": "MESO1 viability (%)", "setting": "[2]; conc 0.00152588 uM", "result": "112.8% and 111.2%"}, {"measurement": "MESO1 viability (%)", "setting": "[2]; conc 0.00305176 uM", "result": 76.5, "unit": "%"}, {"measurement": "MESO1 viability (%)", "setting": "[2]; conc 0.00610352 uM", "result": "75.4% and 78.7%"}, {"measurement": "MESO1 viability (%)", "setting": "[2]; conc 0.012207 uM", "result": "72.8% and 76.2%"}, {"measurement": "MESO1 viability (%)", "setting": "[2]; conc 0.0244141 uM", "result": 77.3, "unit": "%"}, {"measurement": "MESO1 viability (%)", "setting": "[2]; conc 0.0488281 uM", "result": "71.0% and 73.9%"}, {"measurement": "MESO1 viability (%)", "setting": "[2]; conc 0.0976562 uM", "result": "74.5% and 75.3%"}, {"measurement": "MESO1 viability (%)", "setting": "[2]; conc 0.195312 uM", "result": "73.7% and 71.3%"}, {"measurement": "MESO1 viability (%)", "setting": "[2]; conc 0.390625 uM", "result": 76.1, "unit": "%"}, {"measurement": "MESO1 viability (%)", "setting": "[2]; conc 0.78125 uM", "result": "74.4% and 74.1%"}, {"measurement": "MESO1 viability (%)", "setting": "[2]; conc 1.5625 uM", "result": 76.3, "unit": "%"}, {"measurement": "MESO1 viability (%)", "setting": "[2]; conc 3.125 uM", "result": "70.7% and 70.8%"}, {"measurement": "MESO1 viability (%)", "setting": "[2]; conc 6.25 uM", "result": "70.6% and 74.9%"}, {"measurement": "MESO1 viability (%)", "setting": "[2]; conc 12.5 uM", "result": "61.9% and 67.0%"}, {"measurement": "MESO1 viability (%)", "setting": "[2]; conc 25 uM", "result": "64.2% and 64.1%"}, {"measurement": "MESO1 viability (%)", "setting": "[2]; conc 50 uM", "result": "0.7% and 0.8%"}, {"measurement": "Jurkat viability (%)", "setting": "[3]; conc 9.53674e-5 uM", "result": "52.8% and 57.4%"}, {"measurement": "Jurkat viability (%)", "setting": "[3]; conc 0.000190735 uM", "result": "35.2% and 40.4%"}, {"measurement": "Jurkat viability (%)", "setting": "[3]; conc 0.00038147 uM", "result": "39.9% and 44.6%"}, {"measurement": "Jurkat viability (%)", "setting": "[3]; conc 0.000762939 uM", "result": 31.7, "unit": "%"}, {"measurement": "Jurkat viability (%)", "setting": "[3]; conc 0.00152588 uM", "result": "102.7% and 105.0%"}, {"measurement": "Jurkat viability (%)", "setting": "[3]; conc 0.00305176 uM", "result": 37.4, "unit": "%"}, {"measurement": "Jurkat viability (%)", "setting": "[3]; conc 0.00610352 uM", "result": "31.8% and 34.7%"}, {"measurement": "Jurkat viability (%)", "setting": "[3]; conc 0.012207 uM", "result": "28.7% and 28.4%"}, {"measurement": "Jurkat viability (%)", "setting": "[3]; conc 0.0244141 uM", "result": "27.2% and 27.1%"}, {"measurement": "Jurkat viability (%)", "setting": "[3]; conc 0.0488281 uM", "result": 23.4, "unit": "%"}, {"measurement": "Jurkat viability (%)", "setting": "[3]; conc 0.0976562 uM", "result": "26.6% and 24.6%"}, {"measurement": "Jurkat viability (%)", "setting": "[3]; conc 0.195312 uM", "result": "24.1% and 25.5%"}, {"measurement": "Jurkat viability (%)", "setting": "[3]; conc 0.390625 uM", "result": "24.1% and 24.6%"}, {"measurement": "Jurkat viability (%)", "setting": "[3]; conc 0.78125 uM", "result": 24.2, "unit": "%"}, {"measurement": "Jurkat viability (%)", "setting": "[3]; conc 1.5625 uM", "result": "22.7% and 24.6%"}, {"measurement": "Jurkat viability (%)", "setting": "[3]; conc 3.125 uM", "result": "21.8% and 23.2%"}, {"measurement": "Jurkat viability (%)", "setting": "[3]; conc 6.25 uM", "result": "22.0% and 21.9%"}, {"measurement": "Jurkat viability (%)", "setting": "[3]; conc 12.5 uM", "result": 19.2, "unit": "%"}, {"measurement": "Jurkat viability (%)", "setting": "[3]; conc 25 uM", "result": "6.4% and 6.3%"}]}
